Experiments:
c-Src = target: T1, c-Src (Homo sapiens, UniProt P12931); assay: c-Src enzyme inhibition (Z-LYTE FRET); format: biochemical; conditions: Table 2A
T1 construct: purchased Life Technologies
Description: (§1) The enzyme inhibitory activities of compounds disclosed herein were determined by FRET using synthetic peptides labelled with both donor and acceptor fluorophores (Z-LYTE, Life Technologies, Paisley, UK).
(§2) The relevant enzyme (1000 ng/mL, 1400 ng/mL or 2000 ng/mL respectively, 2.5 μL) was incubated with the test compound (either 40 μg/mL, 12 μg/mL, 4 μg/mL, 1.2 μg/mL, 0.4 μg/mL, 0.12 μg/mL, 0.04 μg/mL, 0.012 μg/mL, 0.004 μg/mL or 0.0012 μg/mL, 2.5 μL each) for 2 h at RT. The FRET peptides (8 μM, 2.5 μL), and appropriate ATP solutions (2.5 μL, 800 μM for c-Src, and 60 μM ATP for HCK and Syk) were then added to the enzyme/compound mixtures and incubated for 1 h at RT. Development reagent (protease, 5 μL) was added for 1 h prior to detection in a fluorescence microplate reader (EnVision, Perkin Elmer).
(§3) In all cases, the site-specific protease cleaves non-phosphorylated peptide only and eliminates the FRET signal. Phosphorylation levels of each reaction were calculated using the ratio of coumarin emission (donor) over fluorescein emission (acceptor), for which low ratios indicate high phosphorylation and high ratios indicate low phosphorylation levels.

[1] = tested on: TNFα release in d-U937 cells; assay: LPS-induced TNFα release in d-U937 cells; format: cell-based; conditions: Homo sapiens, dU937; read-out: LPS Induced Release TNFα REC50 (dU937); note: relative to 10 µg/mL BIRB-796
Description: U937 cells, a human monocytic cell line, were differentiated into macrophage-type cells by incubation with PMA (100-200 ng/mL) for 48 to 72 h. Cells were pre-incubated with final […] concentrations of test compound for 2 h and were then stimulated with LPS (0.1 μg/mL; from E. coli: O111:B4, Sigma) for 4 h. The supernatant was collected for determination of TNFα and IL-8 concentrations by sandwich ELISA (Duo-set, R&D systems). […] The relative 50% effective concentration (REC50) was determined from the resultant concentration-response curve. The inhibition of IL-8 production was calculated at each concentration of test compound by comparison with vehicle control.

[2] = target: T2, p38 MAPKα isoform (MAPK14) (Homo sapiens, UniProt Q16539); assay: p38 MAPKα enzyme inhibition (Z-LYTE FRET); format: biochemical; conditions: Table 2A; read-out: IC50 Values for Enzyme Inhibition p38 MAPKα
T2 construct: purchased Life Technologies
Outline: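 Activity was measured indirectly as phosphorylation of a MAPKAP-K2-derived FRET peptide. Enzyme (added at 40 ng/mL) was preincubated 2 h at RT with compound (added solutions 40–0.0012 μg/mL).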

Syk = target: T3, Syk (Homo sapiens, UniProt P43405); assay: Syk enzyme inhibition (Z-LYTE FRET); format: biochemical; conditions: for IC50: Table 2A
T3 construct: purchased Life Technologies
Description: as §1, §2, §3

[3] = tested on: ICAM-1 expression in BEAS2B cells; assay: Poly I:C-induced ICAM-1 expression in BEAS2B cells; format: cell-based; conditions: Homo sapiens, BEAS-2B, read-out: PolyIC/ICAM1 IC50 (BEAS2B)
Description: Poly I:C was used in these studies as a simple, RNA virus mimic. Poly I:C-Oligofectamine mixture (2% Oligofectamine±1 μg/mL Poly I:C, 25 μL; Life Technologies and Invivogen Ltd., San Diego, Calif., respectively) was transfected into BEAS2B cells (human bronchial epithelial cells, ATCC). Cells were pre-incubated with final concentrations of test compounds for 2 h and the level of ICAM-1 expression on the cell surface was determined by cell-based ELISA. At a time point 18 h after poly I:C transfection, cells were fixed with 4% formaldehyde in PBS (100 μL) and then endogenous peroxidase was quenched by the addition of washing buffer (100 μL, 0.05% Tween in PBS: PBS-Tween) containing 0.1% sodium azide and 1% hydrogen peroxide. Cells were washed with wash-buffer (3×200 μL). After blocking the wells with 5% milk in PBS-Tween (100 μL) for 1 h, the cells were incubated with anti-human ICAM-1 antibody (50 μL; Cell Signaling Technology, Danvers, Mass.) in 1% BSA PBS overnight at 4° C.
The cells were washed with PBS-Tween (3×200 μL) and incubated with the secondary antibody (100 μL; HRP-conjugated anti-rabbit IgG, Dako Ltd., Glostrup, Denmark). The cells were then incubated with of substrate (50 μL) for 2-20 min, followed by the addition of stop solution (50 μL, 1N H2SO4). The ICAM-1 signal was detected by reading the absorbance at 450 nm against a reference wavelength of 655 nm using a spectrophotometer. The cells ware then washed with PBS-Tween (3×200 μL) and total cell numbers in each well were determined by reading absorbance at 595 nm after Crystal Violet staining (50 μL of a 2% solution in PBS) and elution by 1% SDS solution (100 μL) in PBS. The measured OD 450-655 readings were corrected for cell number by dividing with the OD595 reading in each well. The inhibition of ICAM-1 expression was calculated at each concentration of test compound by comparison with vehicle control.

Hck = target: T4, Hck (Homo sapiens, UniProt P08631); assay: Hck enzyme inhibition (Z-LYTE FRET); format: biochemical; conditions: Table 2A
T4 construct: purchased Life Technologies
Description: as §1, §2, §3

T4 sequence (P08631 22-526): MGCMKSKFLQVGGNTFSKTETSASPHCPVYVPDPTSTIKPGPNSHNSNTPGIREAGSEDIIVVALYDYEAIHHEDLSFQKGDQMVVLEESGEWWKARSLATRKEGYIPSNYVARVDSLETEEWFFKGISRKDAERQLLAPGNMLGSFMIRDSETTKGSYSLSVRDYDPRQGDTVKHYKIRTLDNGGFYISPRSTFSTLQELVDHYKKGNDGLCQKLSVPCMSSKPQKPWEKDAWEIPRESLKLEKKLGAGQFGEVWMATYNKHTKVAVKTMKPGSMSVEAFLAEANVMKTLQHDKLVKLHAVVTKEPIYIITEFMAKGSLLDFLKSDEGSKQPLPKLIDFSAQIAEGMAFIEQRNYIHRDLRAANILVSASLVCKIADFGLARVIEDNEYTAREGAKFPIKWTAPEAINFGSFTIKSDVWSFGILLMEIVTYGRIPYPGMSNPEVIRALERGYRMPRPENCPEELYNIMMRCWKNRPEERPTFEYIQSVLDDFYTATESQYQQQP
T1 sequence (P12931 whole entry): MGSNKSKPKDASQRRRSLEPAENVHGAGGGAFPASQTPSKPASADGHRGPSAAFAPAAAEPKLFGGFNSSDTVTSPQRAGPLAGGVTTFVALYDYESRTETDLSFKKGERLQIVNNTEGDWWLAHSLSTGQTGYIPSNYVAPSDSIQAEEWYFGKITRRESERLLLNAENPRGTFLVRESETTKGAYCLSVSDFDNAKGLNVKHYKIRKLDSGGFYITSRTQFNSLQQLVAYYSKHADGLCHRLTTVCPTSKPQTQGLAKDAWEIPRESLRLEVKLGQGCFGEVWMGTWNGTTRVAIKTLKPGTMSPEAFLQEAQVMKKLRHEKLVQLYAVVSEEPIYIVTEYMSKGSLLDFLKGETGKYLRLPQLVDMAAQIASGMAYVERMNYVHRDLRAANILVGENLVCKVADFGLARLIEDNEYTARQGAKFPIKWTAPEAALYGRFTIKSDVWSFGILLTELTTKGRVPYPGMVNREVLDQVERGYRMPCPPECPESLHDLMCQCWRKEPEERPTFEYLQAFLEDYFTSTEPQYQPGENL
T2 sequence (Q16539 whole entry, canonical isoform): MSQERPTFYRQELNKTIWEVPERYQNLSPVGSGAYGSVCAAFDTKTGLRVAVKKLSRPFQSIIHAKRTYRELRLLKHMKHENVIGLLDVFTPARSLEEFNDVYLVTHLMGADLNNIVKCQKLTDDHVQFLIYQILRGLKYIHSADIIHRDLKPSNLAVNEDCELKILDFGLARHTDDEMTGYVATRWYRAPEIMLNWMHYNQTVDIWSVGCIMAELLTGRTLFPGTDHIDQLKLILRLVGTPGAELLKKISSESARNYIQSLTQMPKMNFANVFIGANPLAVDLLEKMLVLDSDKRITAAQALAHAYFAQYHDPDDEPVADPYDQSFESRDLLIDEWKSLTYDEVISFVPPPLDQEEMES

| Compound | IC50 (c-Src) | EC50 [1] | IC50 [2] | IC50 (Syk) | IC50 (Hck) | IC50 [3] | inhibitory activity against Syk (in words) (Syk) |
| --- | --- | --- | --- | --- | --- | --- | --- |
| Cc1ccc(-n2nc(C(C)(C)C)cc2NC(=O)Nc2ccc(OCc3ccnc(Nc4cnccn4)c3)c3ccccc23)s1 [Example 13] | 129 nM | 18.2 nM | 9 nM | > 16500 nM | 49 nM | 556 nM |  |
| Cc1ccc(-n2nc(C(C)(C)C)cc2NC(=O)Nc2ccc(OCc3ccnc(Nc4cnc(C(=O)N5CCOCC5)cn4)c3)c3ccccc23)cc1 [Example 35] | 51 nM | 12.1 nM | 9 nM | > 14000 nM | 42 nM | 113 nM |  |
| CNC(=O)Cc1cncc(Nc2cc(COc3ccc(NC(=O)Nc4cc(C(C)(C)C)nn4-c4ccc(C)cc4)c4ccccc34)ccn2)n1 [Example 28] | 32 nM | 2.7 nM | 5 nM | > 14900 nM | 11 nM | 75.5 nM |  |
| Cc1ccc(-n2nc(C(C)(C)C)cc2NC(=O)Nc2ccc(OCc3ccnc(Nc4cncc(C5CCC5)n4)c3)c3ccccc23)cc1 [Example 47] | 402 nM | 5.8 nM | 87 nM | 4150 nM | 110 nM | 151 nM |  |
| COCCNC(=O)c1cnc(Nc2cc(COc3ccc(NC(=O)Nc4cc(C(C)(C)C)nn4-c4ccc(C)cc4)c4ccccc34)ccn2)cn1 [Example 3] | 144 nM | 5.5 nM | 9 nM | > 14300 nM | 66 nM | 460 nM |  |
| CNC(=O)Cc1cnc(Nc2cc(COc3ccc(NC(=O)Nc4cc(C(C)(C)C)nn4-c4ccc(C)cc4)c4ccccc34)ccn2)cn1 [Example 33] | 35 nM | 2.6 nM | 3 nM | > 14900 nM | 11 nM | 150 nM |  |
| Cc1ccc(-n2nc(C(C)(C)C)cc2NC(=O)Nc2ccc(OCc3ccnc(Nc4cncc(CC(N)=O)n4)c3)c3ccccc23)cc1 [Example 32] | 25 nM | 13 nM | 3 nM | > 15200 nM | 7 nM | 65.6 nM |  |
| CC(C)(C)c1cc(NC(=O)Nc2ccc(OCc3ccnc(Nc4cnccn4)c3)c3ccccc23)n(-c2cccc(Cl)c2)n1 [Example 50] | 966 nM | 7.1 nM | 22 nM | 5820 nM | 113 nM | > 1620 nM |  |
| Cc1ccc(-n2nc(C(C)(C)C)cc2NC(=O)Nc2ccc(OCc3ccnc(Nc4cncc(C5CCCC5)n4)c3)c3ccccc23)cc1 [Example 48] | 459 nM | 0.3 nM | 91 nM | > 15000 nM | 133 nM | 92.5 nM |  |
| COCCNC(=O)c1cnc(Nc2cc(COc3ccc(NC(=O)Nc4cc(C(C)(C)C)nn4-c4csc(C)c4)c4ccccc34)ccn2)cn1 [Example 44] | 233 nM | 88.2 nM | 11 nM | > 14200 nM | 58 nM | 1150 nM |  |
| COc1ccc(-n2nc(C(C)(C)C)cc2NC(=O)Nc2ccc(OCc3ccnc(Nc4cnccn4)c3)c3ccccc23)cc1C [Example 39] | 82 nM | 3.4 nM | 18 nM | > 15900 nM | 31 nM | 46.6 nM |  |
| COc1ccc(-n2nc(C(C)(C)C)cc2NC(=O)Nc2ccc(OCc3ccnc(Nc4cnccn4)c3)c3ccccc23)cc1 [Example 38] | 153 nM | 2.7 nM | 14 nM | > 16300 nM | 60 nM | 75.5 nM |  |

More lines, in order of falling IC50 (c-Src), values ahead:

| IC50 (c-Src) | EC50 [1] | IC50 [2] | IC50 (Syk) | IC50 (Hck) | Compound | IC50 [3] | inhibitory activity against Syk (in words) (Syk) |
| --- | --- | --- | --- | --- | --- | --- | --- |
| 2510 nM | 1.3 nM | 134 nM | > 14900 nM | 1500 nM | Cc1ccc(-n2nc(C(C)(C)C)cc2NC(=O)Nc2ccc(OCc3ccnc(Nc4cnc(C(=O)N(C)C)cn4)c3)c3ccccc23)cc1 [Example 9, 5-((4-(((4-(3-(3-(tert-Butyl)-1-(p-tolyl)-1H-pyrazol-5-yl)ureido)naphthalen-1-yl)oxy)methyl)pyridin-2-yl)amino)-N,N-dimethylpyrazine-2-carboxamide] | 72.5 nM |  |
| 543 nM | 4.3 nM | 15 nM | > 16300 nM | 89 nM | CCc1ccc(-n2nc(C(C)(C)C)cc2NC(=O)Nc2ccc(OCc3ccnc(Nc4cnccn4)c3)c3ccccc23)cc1 [Example 42] | 197 nM |  |
| 105 nM | 16.8 nM | 14 nM | > 16200 nM | 39 nM | COc1ccc(-n2nc(C(C)(C)C)cc2NC(=O)Nc2ccc(OCc3ccnc(Nc4cnccn4)c3)c3ccccc23)cn1 [Example 12] | 242 nM |  |
| 98 nM | 1.6 nM | 25 nM | > 16700 nM | 29 nM | Cc1ccc(-n2nc(C(C)(C)C)cc2NC(=O)Nc2ccc(OCc3ccnc(Nc4cnccn4)c3)c3ccccc23)cc1 [Example 1, 1-(3-(tert-Butyl)-1-(p-tolyl)-1H-pyrazol-5-yl)-3-(4-((2-(pyrazin-2-ylamino)pyridin-4-yl)methoxy)naphthalen-1-yl)urea] | 81.8 nM | very much weaker than the Reference Compound |
| 61 nM | 1.6 nM | 19 nM | > 14400 nM | 48 nM | Cc1ccc(-n2nc(C(C)(C)C)cc2NC(=O)Nc2ccc(OCc3ccnc(Nc4cnc(C(=O)N5CCCC5)cn4)c3)c3ccccc23)cc1 [Example 36] | 188 nM |  |
| 47 nM | 2.8 nM | 8 nM | > 15900 nM | 16 nM | Cc1ccc(-n2nc(C(C)(C)C)cc2NC(=O)Nc2ccc(OCc3ccnc(Nc4cnc(CO)cn4)c3)c3ccccc23)cc1 [Example 10, 1-(3-(tert-Butyl)-1-(p-tolyl)-1H-pyrazol-5-yl)-3-(4-((2-((5-(hydroxymethyl)pyrazin-2-yl)amino)pyridin-4-yl)methoxy)naphthalen-1-yl)urea] | 32.5 nM |  |
| 34 nM | 2.1 nM | 96 nM | > 15700 nM | 15 nM | Cc1ccc(-n2nc(C(C)(C)C)cc2NC(=O)Nc2ccc(OCc3ccnc(Nc4cncc(C5CC5)n4)c3)c3ccccc23)cc1 [Example 15] | 15.7 nM |  |
| 33 nM | 0.6 nM | 5 nM | > 15900 nM | 12 nM | Cc1ccc(-n2nc(C(C)(C)C)cc2NC(=O)Nc2ccc(OCc3ccnc(Nc4cncc(CO)n4)c3)c3ccccc23)cc1 [Example 21] | 76.5 nM |  |
| 29 nM | 2.9 nM | 12 nM | > 15600 nM | 6 nM | Cc1ccc(-n2nc(C(C)(C)C)cc2NC(=O)Nc2ccc(OCc3ccnc(Nc4cncc(N(C)C)n4)c3)c3ccccc23)cc1 [Example 14] | 64.3 nM |  |
